Data reported in patent US20250270549A1, “MSI2 AS A THERAPEUTIC TARGET FOR THE TREATMENT OF MYOTONIC DYSTROPHY” (UNIVERSITAT DE VALÈNCIA, priority 2021, published 2025).
l = locked nucleic acid (LNA); d = 2'-deoxy (DNA)

Legend:
[1] = test system: MSI2 transcripts; assay: MSI2 relative expression (transcripts) by RT-qPCR in muscle cells; type: cell-based, H. sapiens
Description: (§1) TDMs were cultured as previously described^1. After 4 days in differentiation medium (MDM), cells were transfected with a combination of two siRNAs (SEQ ID NO: 40 and 43) targeting MSI2 transcripts (final concentration 100 nM) using Lipofectamine RNAiMAX transfection reagent (Invitrogen, Madrid, Spain)) following the manufacturer's recommendations. After 48 h, the medium containing the siRNAs was replaced by fresh MDM. 24 h later, cells were collected. As a control, the same protocol was performed using 100 nM of a siRNA with a scrambled sequence (Cat #4390843 for negative control). Gapmers against MSI2 and agomiR-107 were transfected following the same protocol using two different concentrations, 30 and 150 nM in the case of Gapmers and 100 and 300 nM in the case of agomiR-107. To treat cells with the small molecule Ro-08-2750 (Tocris Cat. No. 2272, Bristol, UK)), cells were cultured as before. Briefly, after 96 h in MDM, the medium was supplemented with Ro-08-2750 at a final concentration of 10 μM (0.8% DMSO) or with the vehicle, DMSO 0.8%, for 48 h. Then cells were collected for further analyses.
(§2) All the procedures were performed as previously described^1.

[2] = test system: miR-7; assay: miR-7 quantification by RT-qPCR in MD1 cells; type: cell-based, human; conditions: MD1 cells, * significant
Description: as §1, §2

[3] = test system: TGFBR1; assay: TGFBR1 expression by RT-qPCR in MD1 muscle cells; type: cell-based, H. sapiens; conditions: DM1 TDMs; 150 nM
Description: as §1, §2

[4] = test system: MD1 TDMs; assay: Desmin immunostaining: myogenic fusion index and myotube diameter; type: cell-based, human; conditions: MD1 myotubes; 30 nM
Description: as §1
Desmin immunostaining and fusion index and diameter determination were performed as previously described^3. For MSI2 immunodetection, 3.5×10^4 fibroblasts/well were seeded in 24 well plates. After 7 days of differentiation into myotubes, cells were fixed with 4% paraformaldehyde (PFA) for 15 min. After 3 washes with PBS-T (0.1%×-TritonX-100 in PBS 1×) cells were blocked (PBS-T, 1% BSA, 5% normal goat serum) for 1 h and incubated with rabbit anti-MSI2 antibody (1:100, Abcam, EP1305Y, Cambridge, UK) in blocking buffer for 48 h at 4° C. After three washes with PBS-T, cells were incubated for 1 h with goat anti-rabbit-FITC IgG (1:200, Sigma-Aldrich, St. Louis, Missouri) in blocking buffer. Finally, cells were washed thrice with PBS 1× and were counterstained and mounted with VECTASHIELD® mounting medium containing DAPI (Vector Laboratories, London, UK) to detect the nuclei. Images were taken in a confocal microscope LSM800 (Zeiss) at 400× magnification.

[5] = test system: AKT; assay: AKT pathway activation: phospho (Ser473)-AKT-to-total-AKT ratio; type: cell-based, human; conditions: DM1 TDMs; 150 nM
Description: (§3) FIG. 10. Inhibition of MSI2 expression in DM1 TDMs restores impaired autophagic markers. (A) qRT-PCR quantification of the relative expression of the indicated genes involved in different autophagy pathway steps in DM1 and control (green dashed lines) myotubes. Statistical analyses were performed comparing DM1 versus controls. (B) Analyses of the expression of genes quantified in (A) in DM1 myotubes treated with ASOs targeting MSI2 transcripts. All comparisons for the statistical analyses were performed using their corresponding scrambled control (dashed lines). […] Quantification and representative western blots of (C) ATG4A, (D) ATG7, (E) AKT-P/AKT total protein levels, and (F) LC3-II/LC3-I ratio in DM1 TDMs treated with MSI2 targeting or scrambled ASOs at the indicated concentrations. Green dashed lines indicate protein expression levels in control myotubes. β-actin was used as an endogenous control to normalize protein levels (n=3). The bar graphs show mean #SEM. * p<0.05, ** p<0.01, *** p<0.001, and **** p<0.0001 according to Student's t test.
Protein extraction, quantification and immunodetection were performed as previously described^1,3. Specifically, MSI2 detections were performed by incubating membranes overnight with a rabbit anti-MSI2 antibody (1:1000, Abcam, EP1305Y, Cambridge, UK). […] Quantification was performed using ImageJ software (NIH).

[6] = test system: LC3; assay: LC3 immunostaining and LC3 puncta quantification; type: cell-based, human; conditions: DM1 TDMs; compared to scrambled ASO at the same concentration
Description: For LC3B immunodetection, cells were differentiated in MDM for 7 days (3×10^5 cells/well in 24-well plates). After 48 h of gapmer treatment, cells were fixed with 4% PFA in PBS for 15 min at room temperature. After fixation, cells were permeabilized with methanol 100% for 15 min at −20° C. and blocked with blocking buffer (PBS 1×, 0.5% BSA, 1% goat serum) for 1 h at room temperature. Cells were incubated overnight (O/N) with rabbit anti-LC3B (1:200, ab51520; Abcam, Cambridge, UK) diluted in blocking buffer. Then, samples were incubated with goat anti-rabbit IgG (H+L) Alexa Fluor Plus 594 (1:200; Invitrogen, Carlsbad, CA, USA) for 2 h. Between antibodies, cells were washed three times with PBS 1×. Finally, cells were washed three times with PBS and mounted in Vectashield (Vector Laboratories, London, UK) with […] DAPI.
Image analyses of LC3-stained myotubes were performed using the Ifdotmeter software following the authors' recommendations (see Rodríguez-Arribas, M., et al. (2016). IFDOTMETER: A New Software Application for Automated Immunofluorescence Analysis. J. Lab. Autom. 21, 246-259). Briefly, the quantification of the number of LC3 dots or LC3 puncta was performed with 15-20 images per condition. Total LC3 dots per image were normalized relative to the total area corresponding to all myotubes observed in each image. Myotube area was measured by using ImageJ software. Data were expressed as the number of LC3 dots/mm2.

[7] = test system: ATG3, ATG4A, ATG5, ATG7, and mTOR; assay: qRT-PCR of autophagy pathway genes in DM1 TDMs; type: cell-based, human; conditions: highest concentration (150 nM)
Description: as §3, §2

[8] = test system: Human CNT myotubes
Description: (A) Cell growth inhibition assay by MTS method. Human CNT myotubes were transfected with increasing concentrations of ASO1, 2 and 3 (n=4). […] Vertical dashed lines indicate used concentrations in the following experiments: 30 and 150 nM.
Non-DM control (Ctrl) cells (CNT) were aliquoted in 96-well plates with 1.0×10^5 cells per well. After 24 h, cells were transfected as described with different ASOs (concentrations ranging from 1 nM to 1 μM) or treated with Ro-08-2750 (Tocris Bioscience, Bristol, UK) at concentrations ranging from 0.0195 up to 80 μM (in 1:2 serial dilutions). Cell viability was measured as previously described^3.

ASO1: gapmer antisense oligonucleotide against MSI2 transcript, SEQ ID NO: 76 (38), 5′ +T+G+A*C*T*T*C*T*T*T*C*G*G+C+T+G 3′, LNA ends, phosphorothioate linkages (antisense TGACTTCTTTCGGCTG; sugars from the 5' end l3 d10 l3, backbone and methylation of C not given here; further chemistry not fully specified)
MSI2 relative expression upon transfection ([1]; DM1 TDMs, 30 and 150 nM): significant reduction | reduction of MSI2 transcript ([1]; MD1-derived myoblasts, 150 nM): 27% | FC miR-7 expression respect to MD1, Low concentration ([2]; ASO 30 nM, Ro 08-2750 10 μM, siRNA 100 nM): 1.49 fold | FC miR-7 expression respect to MD1, High concentration ([2]; ASO 150 nM): 1.72* fold | TGFBR1 expression [3]: behaved the opposite | fusion capacity (fusion index and diameter) [4]: significant rescue | AKT-P/AKT ratio [5]: robust increase | LC3 dots per unit of area [6]: significant decrease | ATG5 expression [7]: significantly reduced | TC10 [8]: 31.2 nM
